Experimental data taken from patent publication EP0549352B1, “Tricyclic compounds as angiotensin II antagonists” (KYOWA HAKKO KOGYO CO., LTD., priority 1991, dated 1993).

Key:
AII receptor = target: T1, AII receptor (Bos taurus, UniProt P25104); test: Receptor binding test using bovine adrenal cortex ([125I]AII binding); settings: test compound 0.1 µM; receptor binding of [125I]AII (2.5 × 10^-10M); bovine adrenal cortex membranes; room temperature, 2 hours; read-out: Inhibition Rate (%)
T1 construct: Tissue of bovine adrenal cortex was finely cut and suspended; from tissue; host or cells: bovine adrenal cortex membrane fraction
T1 sequence (P25104 1-359): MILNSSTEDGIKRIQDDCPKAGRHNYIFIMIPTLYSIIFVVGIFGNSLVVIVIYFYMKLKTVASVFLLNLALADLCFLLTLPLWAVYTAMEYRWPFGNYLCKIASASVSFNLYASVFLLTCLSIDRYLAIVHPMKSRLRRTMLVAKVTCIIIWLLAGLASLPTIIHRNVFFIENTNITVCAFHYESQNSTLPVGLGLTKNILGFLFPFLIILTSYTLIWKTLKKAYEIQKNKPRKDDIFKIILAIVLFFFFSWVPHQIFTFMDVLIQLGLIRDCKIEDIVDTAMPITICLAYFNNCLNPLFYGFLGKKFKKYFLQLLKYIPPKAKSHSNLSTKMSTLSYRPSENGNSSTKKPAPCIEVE
Experimental: Receptor binding test using bovine adrenal cortex
Tissue of bovine adrenal cortex was finely cut and suspended in a 0.25M sucrose solution containing NaHCO3, ethylenediaminetetraacetic acid (EDTA), leupepsin, pepstatin A and phenylmethanesulfonyl fluoride, followed by homogenization. The homogenate was centrifuged at 3,000 rpm for 10 minutes and the supernatant was centrifuged at 9,000 rpm. Then, the supernatant was further centrifuged at 30,000 rpm for 60 minutes and the precipitate was suspended in NaHCO3-EDTA solution, followed by centrifugation at 30,000 rpm for 60 minutes. The resulting precipitate was suspended in a phosphate buffer and the suspension was used for the binding test as an AII receptor source.
To a test compound or a solvent were added 250 µl of the AII receptor solution prepared above, 250 µl of Tris 50 mM buffer containing 0.2% bovine serum albumin (BSA), and 20 µl of [^125I]AII (2.5 × 10^-10M). The mixture was allowed to stand at room temperature for 2 hours and then filtered through a glass fiber filter (GF/B Wattman). The filter was placed in a test tube and the radioactivity was measured using a gamma-counter.
The inhibitory activity (inhibition rate) of the test compound (0.1 µM) against the receptor binding of [^125I]AII was calculated by the following equation. Inhibition Rate (%) =(1-((Binding Amount in the Presence of a Test Compound)-(Nonspecific Binding Amount))/((Total Binding Amount)-(Nonspecific Binding Amount)))× 100 [formula]
The binding amount in the presence of a test compound is the amount of radioactivity of [^125I]AII bound in the presence of a test compound (0.1 µM).
The total binding amount is the amount of radioactivity of [^125I]AII bound in the absence of a test compound.
The nonspecific binding amount is the amount of radioactivity of [^125I]AII bound in the presence of 1 µM AII.

[1] = system: hypertensive response to AII; test: Inhibition test against hypertensive response to AII; type: in vivo, Male Wistar rats; settings: test compound 1 mg/kg orally; 0.3 µg/kg AII intravenously one hour after dosing; average artery blood pressure
Experimental: Inhibition test against hypertensive response to AII
Male Wistar rats were anesthetized with pentobarbital. A cannula for blood pressure measurement was inserted from the right femoral artery into the abdominal aorta and another cannula for AII injection was inserted into the right femoral vein. The cannulae were passed under skin and fixed after coming out of the back, and the blood pressure was recorded on a polygraph from the artery cannula using a voltage transformer.
On the day after operation, 0.3 µg/kg AII was intravenously injected into each animal and the change in the average artery blood pressure was examined as the control pressor response. Then, a test compound (1 mg/kg) was orally administered and after one hour, 0.3 µg/kg AII was injected again, followed by examination of the pressor response. The inhibitory effect of the test compound against the control pressor response was determined as the inhibition rate.

`CCc1nc2c(C)cc(C)nc2n1Cc1ccc2c(c1)CCc1ccccc1N2Cc1nnn[nH]1` [Compound 32, 2-(5,7-Dimethyl-2-ethyl-3H-imidazo[4,5-b]pyridin-3-yl)methyl-5-(1H-tetrazol-5-yl)methyl-5H-10,11-dihydrodibenz[b,f]azepine] was tested, and the inhibition at 0.1 µM (AII receptor) was 86% and the “inhibition rate against the control pressor response” value [1] was 45%.
